The text below walks through data of ChEMBL document CHEMBL1201862, “PubChem BioAssay data set” (2004).

Holding throughout (experiment): NCI tumour cell line growth inhibition, 48 h
The test system of assay [1] is A549.
In assay [2] the test system is ACHN.
The subject of assay [3] is COLO 205.
Assay [4] concerns DU-145.
In assay [5] the test system is EKVX.
Assay [6] deals with HCT-116.
Assay [7] has as its system HCT-15.
The test system of assay [8] is HL-60.
In assay [9] the test system is HT-29.
The subject of assay [10] is IGROV-1.
For assay [11], the system named is MDA-MB-231.
For assay [12], the system named is OVCAR-5.
The subject of assay [13] is SF-268.
Assay [14] has as its system SF-539.
In assay [15] the test system is SK-MEL-28.
The subject of assay [16] is SK-MEL-2.
Assay [17] concerns SK-MEL-5.
Assay [18] has as its system SN12C.
Assay [19] concerns SNB-19.
Assay [20] deals with UACC-62.

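Grown in 96-well plates, cells were treated for 48 hours with each compound at five concentrations. Insufficient inhibition: endpoint recorded as highest concentration tested. Abbreviation: GI50, concentration required for 50% inhibition of growth.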 Activity calls are given as the source filed them. Cut-off read from the data, not from the text of the source: active = GI50 up to about 1.1 µM and inactive = higher.

Consider `O=C1OC2(c3ccc(O)cc3Oc3cc(O)ccc32)c2c1c(-c1ccccc1)c(-c1ccccc1)c(-c1ccccc1)c2-c1ccccc1`, for which the GI50 in assay [1] is 34.5 µM (inactive); in assay [2], 19.9 µM (inactive); in assay [3] it was 19.3 µM (inactive); in assay [4] it was 17.2 µM (inactive); in [5] it was 25.8 µM (inactive); in assay [6], 24.4 µM (inactive). Also, the GI50 was 18.7 µM in [7]; 14.8 µM (inactive) in assay [8]; 18.7 µM (inactive) in assay [9]; 19.1 µM (inactive) in assay [10]; 18.7 µM (inactive) in [11]; 20.4 µM (inactive) in assay [12]. Further, the GI50 in [13] is 22.2 µM (inactive); in assay [14], 22.9 µM (inactive); in assay [15], 20.8 µM (inactive); in assay [16], 20 µM (inactive); in [17], 27.7 µM (inactive); in [18], 25.1 µM (inactive). Also, the GI50 in [19] and in assay [20] was 18.7 µM (inactive) throughout.
Regarding `CN1CCN([C@H]2C[C@H]3[C@@H]4CC=C5C[C@@H](O)CC[C@]5(C)[C@H]4CC[C@]3(C)[C@H]2O)CC1`, the GI50 in assay [1] was > 100 µM (inactive); in assay [2], > 100 µM (inactive); in assay [3], > 67.8 µM (inactive); in assay [4], > 100 µM (inactive); in assay [5], > 100 µM (inactive); in assay [6] it was 30.7 µM (inactive). In addition, the GI50 in [7] is over 42.3 µM; in assay [8], 16.8 µM (inactive); in assay [9], 7.29 µM (inactive); in assay [10] it was > 90.8 µM (inactive); in assay [11] it was > 48.3 µM (inactive); in assay [12], > 47.5 µM (inactive). Besides, the GI50 in assay [13] is > 41.7 µM (inactive); in assay [14] it was 26.2 µM (inactive); in [15], 27.4 µM (inactive); in [16], > 83.9 µM (inactive); in assay [17] it was 35.5 µM (inactive); in assay [18] it was > 100 µM (inactive). Besides, the GI50 in assay [19] is > 45.5 µM (inactive); in assay [20], > 44 µM (inactive).
Regarding `CN(C)C(=O)O/N=C1/C(=C2/C(=O)Nc3ccccc32)Nc2ccccc21`, the GI50 was 20.5 µM (inactive) in assay [1]; 19.2 µM (inactive) in assay [2]; > 100 µM (inactive) in [3]; 8.83 µM (inactive) in assay [4]; 4.83 µM (inactive) in assay [5]; 19.1 µM (inactive) in assay [6]. The GI50 in [7] was 19.2 µM; in [8], > 100 µM (inactive); in [9], 38.8 µM (inactive); in assay [10] it was 0.711 µM (active); in assay [11], 11.6 µM (inactive); in assay [12], 31 µM (inactive). In addition, the GI50 was 6.68 µM (inactive) in [13]; 9.77 µM (inactive) in [14]; 36.5 µM (inactive) in [15]; 8.53 µM (inactive) in assay [16]; 24.2 µM (inactive) in [17]; 22.8 µM (inactive) in [18]. The GI50 was 10.9 µM (inactive) in assay [19] and 16.1 µM (inactive) in [20].
Turning to `OC1C[C@H](c2ccccc2)C2(C(O)c3ccccc3C2O)[C@@H](c2ccccc2)C1` (stereo not given in full), the GI50 in assay [1], in assay [2], in assay [3], in assay [4], in [5] and in [6] was > 100 µM (inactive) in each case. For the same compound, the GI50 was over 100 µM in assay [7]; 27.9 µM (inactive) in [8]; > 100 µM (inactive) in assay [9]; > 100 µM (inactive) in [10]; > 100 µM (inactive) in [11]; > 100 µM (inactive) in assay [12]. The GI50 in [13], in assay [14], in [15], in [16], in [17] and in assay [18] was > 100 µM (inactive) each time. The GI50 in [19] and in assay [20] was > 100 µM (inactive) throughout.
With `O=[N+]([O-])c1cccc2nccc(NCCCO)c12`, the GI50 in assay [1] was 16.5 µM (inactive); in assay [2], 14.3 µM (inactive); in [3], 3.55 µM (inactive); in assay [4] it was 16.8 µM (inactive); in [5] it was 6.79 µM (inactive); in [6], 13 µM (inactive). The GI50 in [7] was 8.11 µM; in assay [8], 11.6 µM (inactive); in [9] it was 6.89 µM (inactive); in assay [10] it was 13.3 µM (inactive); in assay [11], 23 µM (inactive); in assay [12], 20.1 µM (inactive). Further, the GI50 in [13] was 11.6 µM (inactive); in [14], 14.5 µM (inactive); in assay [15] it was 12.4 µM (inactive); in [16], 4.38 µM (inactive); in assay [17], 3.9 µM (inactive); in [18], 14.8 µM (inactive). The values for the GI50 in assay [19] and in assay [20] were 25.1 µM (inactive) and 8.57 µM (inactive), respectively.
As for `N#C/C(=C/NC(=S)NCc1ccccc1)C(N)=O`, the GI50 in [1], in [2], in [3], in assay [4], in assay [5] and in assay [6] was > 100 µM (inactive) throughout. The GI50 was over 100 µM in assay [7]; > 100 µM (inactive) in assay [8]; > 100 µM (inactive) in assay [9]; > 100 µM (inactive) in [10]; > 100 µM (inactive) in assay [11]; > 100 µM (inactive) in assay [12]. The GI50 in [13], in assay [14], in assay [15], in assay [16], in assay [17] and in [18] was > 100 µM (inactive) in each case. The GI50 in assay [19] and in assay [20] was > 100 µM (inactive) each time.
Take `c1cc(Sc2nc(Sc3ccncc3)nc(Sc3ccncc3)n2)ccn1`: the GI50 in assay [1], in assay [2], in assay [3], in [4], in assay [5] and in [6] was > 100 µM (inactive) in each case. The GI50 in [7] is over 100 µM; in assay [8], > 100 µM (inactive); in [9], > 100 µM (inactive); in assay [10], > 100 µM (inactive); in assay [11] it was > 100 µM (inactive); in [12], > 100 µM (inactive). In addition, the GI50 in [13], in assay [14], in assay [15], in assay [16], in assay [17] and in assay [18] was > 100 µM (inactive) in each case. For the same compound, the GI50 in assay [19] and in assay [20] was > 100 µM (inactive) each time.
With `CCCC(=O)Nc1cc(C(=O)N2C[C@H]3C[C@@]34C2=CC(=O)c2[nH]cc(C)c24)n(COC)c1`, the GI50 in [1] is 1.51 µM (inactive); in [2] it was 0.197 µM (active); in assay [3], 0.442 µM (active); in assay [4], 0.116 µM (active); in assay [5] it was 0.843 µM (active); in assay [6], 0.182 µM (active). Moreover, the GI50 in [7] is 1.31 µM; in assay [8] it was 0.045 µM (active); in assay [9], 0.467 µM (active); in assay [10], 0.11 µM (active); in [11], 0.281 µM (active); in assay [12], 1.16 µM (inactive). The GI50 in assay [13] was 0.103 µM (active); in assay [14], 0.177 µM (active); in assay [15] it was 0.208 µM (active); in [16], 0.293 µM (active); in [17], 0.0792 µM (active); in [18] it was 0.966 µM (active). Besides, the GI50 in assay [19] was 0.498 µM (active); in assay [20], 0.195 µM (active).
For the compound `CS(=O)(=O)OCCN(CCOS(C)(=O)=O)c1ccc(/C=N/c2ccc(-c3csc(COc4ccccc4)n3)cc2)cc1`, the GI50 is 3.21 µM (inactive) in assay [1]; 0.407 µM (active) in assay [2]; 2.07 µM (inactive) in assay [3]; 1.64 µM (inactive) in [4]; 5.5 µM (inactive) in assay [5]; 12.6 µM (inactive) in assay [6]. The GI50 in [7] is 8.51 µM; in [8], 0.817 µM (active); in [9], 4.31 µM (inactive); in assay [10], 12.6 µM (inactive); in [11], 17 µM (inactive); in [12] it was 3.73 µM (inactive). For the same compound, the GI50 in [13] is 2.49 µM (inactive); in [14], 2.86 µM (inactive); in [15], 12.7 µM (inactive); in [16] it was 15.7 µM (inactive); in assay [17] it was 10.7 µM (inactive); in assay [18] it was 5.14 µM (inactive). For the same compound, the GI50 in assay [19] was 9.16 µM (inactive); in [20], 1.87 µM (inactive).
As to `O=C(N/C(=C\c1ccccc1)c1nc2ccccc2c(=O)o1)c1ccccc1`, the GI50 was > 100 µM (inactive) in [1]; 31 µM (inactive) in assay [2]; > 100 µM (inactive) in [3]; > 76.7 µM (inactive) in assay [4]; 57.3 µM (inactive) in assay [5]; > 55.3 µM (inactive) in [6]. For the same compound, the GI50 in assay [7] was 97.1 µM; in assay [8] it was > 100 µM (inactive); in assay [9], > 100 µM (inactive); in [10], 31.4 µM (inactive); in assay [11] it was > 38.3 µM (inactive); in assay [12], > 88.9 µM (inactive). The GI50 in assay [13] was 23.8 µM (inactive); in [14] it was > 53.7 µM (inactive); in [15] it was > 100 µM (inactive); in assay [16] it was > 100 µM (inactive); in assay [17], > 100 µM (inactive); in assay [18] it was > 86.7 µM (inactive). Also, the GI50 in assay [19] is 27.3 µM (inactive); in assay [20], 30.1 µM (inactive).
